Measurements: patent US9676714B2, “Sulfonylindole derivatives and method for preparing the same” (Daewoong Pharmaceutical Co., Ltd., priority 2013, dated 2017)
Where a name gives a salt, the structure may show the parent alone.

Molecular target: T1, proton pump (H+/K+-ATPase) (Sus scrofa, UniProt P19156)
T1 construct: Gastric vesicles were prepared from hog stomach via centrifugal separation; from tissue; host or cells: hog stomach (gastric vesicles, method of Rabon et al. 1988)
Test: Measurement of inhibitory effects on proton pump (H+/K+-ATPase) activities
Type: biochemical
Conditions: hog gastric vesicles, K+-specific H+/K+-ATPase activity, Tris-HCl buffer pH 7.4, 37° C. for 40 minutes, malachite green Pi readout
Procedure: 1) Preparation of Gastric Vesicles
Gastric vesicles were prepared from hog stomach via centrifugal separation (Edd C. Rabon et al., Preparation of Gastric H^+,K^+-ATPase, Methods in enzymology, vol. 157 Academic Press Inc., (1988), pp. 649-654). The protein contents of the thus prepared gastric vesicles were quantitated by Bicinchoninic Acid (BCA) kit.
2) Measurement of Inhibitory Effects on Proton Pump (H^+/K^+-ATPase) Activities
The inhibitory effects of the compounds of the present invention against proton pump activities were measured using a 96-well plate. In this assay, the K^+-specific H^+/K^+-ATPase activities were calculated based on the difference between the H^+/K^+-ATPase activity in the presence of K^+ and that in the absence of K. In the 96-well plate, 0.5% dimethyl sulfoxide (DMSO) in buffer was added to the negative and positive control groups, and the diluted compounds of the present invention were added to the test groups. All assays were performed in a reaction volume of 100 μl at room temperature. The reaction buffer solution (60 mmol/l Tris-HCl buffer, pH 7.4) including the hog gastric vesicles was added with DMSO and the compounds at various concentrations, and then further added with 10 μl of 10 mmol/1 adenosine triphosphate Tris buffer solution (60 mmol/l Tris-HCl buffer, pH 7.4) to initiate an enzyme reaction. […] The amount of monophosphate (Pi) in the reaction was measured at 570 nm using a micro plate reader (FLUOstar Omega, BMG LABTECH). The inhibition rates (%) were determined from the activity values of control groups and those of test compounds at various concentrations, and the […] of the test compounds were calculated based on the respective inhibition value (%) using the Logistic 4-parameter function of Sigmaplot 8.0 program.

T1 sequence (P19156 whole entry): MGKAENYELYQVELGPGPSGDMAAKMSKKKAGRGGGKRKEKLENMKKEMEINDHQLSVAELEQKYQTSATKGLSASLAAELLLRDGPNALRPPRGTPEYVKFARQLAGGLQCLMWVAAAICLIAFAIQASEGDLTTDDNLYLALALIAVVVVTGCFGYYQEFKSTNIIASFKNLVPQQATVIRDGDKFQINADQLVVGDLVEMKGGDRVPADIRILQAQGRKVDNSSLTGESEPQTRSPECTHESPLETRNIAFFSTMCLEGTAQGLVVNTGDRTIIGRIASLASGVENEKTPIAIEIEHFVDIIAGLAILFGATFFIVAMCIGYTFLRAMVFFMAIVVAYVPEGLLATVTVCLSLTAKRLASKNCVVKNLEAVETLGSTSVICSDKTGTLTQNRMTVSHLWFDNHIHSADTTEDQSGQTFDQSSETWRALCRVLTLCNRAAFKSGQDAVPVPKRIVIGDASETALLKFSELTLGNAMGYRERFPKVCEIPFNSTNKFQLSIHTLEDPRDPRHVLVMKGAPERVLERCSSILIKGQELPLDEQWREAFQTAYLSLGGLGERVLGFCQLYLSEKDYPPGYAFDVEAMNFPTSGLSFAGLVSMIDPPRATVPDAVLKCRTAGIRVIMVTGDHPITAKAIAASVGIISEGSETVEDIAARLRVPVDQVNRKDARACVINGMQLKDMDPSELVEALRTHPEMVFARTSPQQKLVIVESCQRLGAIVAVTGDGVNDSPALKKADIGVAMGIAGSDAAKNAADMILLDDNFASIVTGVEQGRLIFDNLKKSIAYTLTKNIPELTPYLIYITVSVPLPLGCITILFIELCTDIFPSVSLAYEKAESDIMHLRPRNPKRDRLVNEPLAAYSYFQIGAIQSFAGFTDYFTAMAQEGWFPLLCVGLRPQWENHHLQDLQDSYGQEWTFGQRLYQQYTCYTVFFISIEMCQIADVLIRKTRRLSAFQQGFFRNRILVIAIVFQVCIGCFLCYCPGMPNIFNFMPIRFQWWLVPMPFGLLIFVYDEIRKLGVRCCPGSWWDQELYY
T1 sequence (P18434 whole entry partner): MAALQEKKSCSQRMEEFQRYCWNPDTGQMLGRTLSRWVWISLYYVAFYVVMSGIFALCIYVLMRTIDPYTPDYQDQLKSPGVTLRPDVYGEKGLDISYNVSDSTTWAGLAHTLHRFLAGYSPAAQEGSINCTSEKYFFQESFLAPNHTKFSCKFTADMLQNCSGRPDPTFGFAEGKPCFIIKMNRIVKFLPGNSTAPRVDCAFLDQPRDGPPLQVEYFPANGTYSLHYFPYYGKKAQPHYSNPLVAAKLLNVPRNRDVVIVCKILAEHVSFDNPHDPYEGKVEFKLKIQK

Compound	IC50 [nM]
CNCc1cn(S(=O)(=O)c2cccnc2)c2cc(Nc3ccc(C#N)cc3F)ccc12 [Example 38, 3-fluoro-4-((3-((methylamino)methyl)-1-(pyridin-3-ylsulfonyl)-1H-indol-6-yl)amino)benzonitrile hydrochloride]	2190
CNCc1cn(S(=O)(=O)c2cccnc2)c2cc(Nc3ccc(C#N)cc3C(F)(F)F)ccc12 [Example 40, 4-((3-((methylamino)methyl)-1-(pyridin-3-ylsulfonyl)-1H-indol-6-yl)amino)-3-(trifluoromethyl)benzonitrile hydrochloride]	1830
CNCc1cn(S(=O)(=O)c2cccnc2)c2cc(Nc3ccc([N+](=O)[O-])cc3Cl)ccc12 [Example 41, N-(2-chloro-4-nitrophenyl)-3-((methylamino)methyl)-1-(pyridin-3-ylsulfonyl)-1H-indol-6-amine hydrochloride]	480
CCc1cc(Br)ccc1Nc1ccc2c(CNC)cn(S(=O)(=O)c3cccnc3)c2c1 [Example 43, N-(4-bromo-2-ethylphenyl)-3-((methylamino)methyl)-1-(pyridin-3-ylsulfonyl)-1H-indol-6-amine hydrochloride]	3020
CNCc1cn(S(=O)(=O)c2cccnc2)c2cc(Nc3ccc(Br)cc3C(F)(F)F)ccc12 [Example 45, N-(4-bromo-2-(trifluoromethyl)phenyl)-3-((methylamino)methyl)-1-(pyridin-3-ylsulfonyl)-1H-indol-6-amine hydrochloride]	1200
CNCc1cn(S(=O)(=O)c2cccnc2)c2cc(Nc3ccc(Br)cc3OC(F)(F)F)ccc12 [Example 46, N-(4-bromo-2-(trifluoromethoxy)phenyl)-3-((methylamino)methyl)-1-(pyridin-3-ylsulfonyl)-1H-indol-6-amine hydrochloride]	2350
CNCc1cn(S(=O)(=O)c2cccnc2)c2cc(Nc3ccc(O)cc3C)ccc12 [Example 47, 3-methyl-4-((3-((methylamino)methyl)-1-(pyridin-3-ylsulfonyl)-1H-indol-6-yl)amino)phenol hydrochloride]	840
CNCc1cn(S(=O)(=O)c2cccnc2)c2cc(Nc3ccc(OC)cc3C(F)(F)F)ccc12 [Example 51, N-(4-methoxy-2-(trifluoromethyl)phenyl)-3-((methylamino)methyl)-1-(pyridin-3-ylsulfonyl)-1H-indol-6-amine hydrochloride]	1200

Compounds with a lower IC50, results first:

IC50 [nM]	Compound
130	CNCc1cn(S(=O)(=O)c2cccnc2)c2cc(Nc3ccc(C#N)cc3Cl)ccc12 [Example 39, 3-chloro-4-((3-((methylamino)methyl)-1-(pyridin-3-ylsulfonyl)-1H-indol-6-yl)amino)benzonitrile hydrochloride]
340	CNCc1cn(S(=O)(=O)c2cccnc2)c2cc(Nc3ccc([N+](=O)[O-])cc3C)ccc12 [Example 42, N-(2-methyl-4-nitrophenyl)-3-((methylamino)methyl)-1-(pyridin-3-ylsulfonyl)-1H-indol-6-amine hydrochloride]
270	CNCc1cn(S(=O)(=O)c2cccnc2)c2cc(Nc3ccc(Br)cc3Cl)ccc12 [Example 44, N-(4-bromo-2-chlorophenyl)-3-((methylamino)methyl)-1-(pyridin-3-ylsulfonyl)-1H-indol-6-amine hydrochloride]
260	CNCc1cn(S(=O)(=O)c2cccnc2)c2cc(Nc3ccc(OC)cc3C)ccc12 [Example 48, N-(4-methoxy-2-methylphenyl)-3-((methylamino)methyl)-1-(pyridin-3-ylsulfonyl)-1H-indol-6-amine hydrochloride]
320	CNCc1cn(S(=O)(=O)c2cccnc2)c2cc(Nc3ccc(OC)cc3F)ccc12 [Example 49, N-(2-fluoro-4-methoxyphenyl)-3-((methylamino)methyl)-1-(pyridin-3-ylsulfonyl)-1H-indol-6-amine hydrochloride]
